Experimental findings from patent publication US10053468B2, “Heterocyclic compound” (TAKEDA PHARMACEUTICAL COMPANY LIMITED, priority 2013, dated 2018) are described below.

Test [1] deals with T1, RORγt (Homo sapiens, UniProt P51449).
T1 sequence (P51449 1-497 isoform P51449-2): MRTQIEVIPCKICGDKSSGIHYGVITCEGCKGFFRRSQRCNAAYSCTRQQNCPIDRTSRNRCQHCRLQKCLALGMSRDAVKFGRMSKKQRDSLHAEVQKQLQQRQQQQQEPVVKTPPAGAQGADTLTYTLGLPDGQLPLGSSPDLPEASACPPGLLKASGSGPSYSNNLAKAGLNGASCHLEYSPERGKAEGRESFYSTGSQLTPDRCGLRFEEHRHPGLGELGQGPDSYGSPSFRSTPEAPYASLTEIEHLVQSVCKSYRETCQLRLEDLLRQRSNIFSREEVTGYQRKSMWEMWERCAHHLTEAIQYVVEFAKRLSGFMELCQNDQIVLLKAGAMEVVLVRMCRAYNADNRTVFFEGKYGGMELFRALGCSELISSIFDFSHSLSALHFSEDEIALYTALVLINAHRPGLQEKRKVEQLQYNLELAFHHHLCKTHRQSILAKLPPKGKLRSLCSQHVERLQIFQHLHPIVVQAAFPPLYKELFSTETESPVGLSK
Description: RORγt binding test using fluorescent-labeled cholesterol (TR-FRET). The following applies: read-out: Binding inhibitory rate of fluorescent-labeled cholesterol to RORγt at test compound 1 μM (%). In a few lines:
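TR-FRET displacement with His-tagged RORγt, BODIPY-cholesterol and Tb-anti-His antibody in Tris-HCl pH 7.5, 100 mM NaCl, 1 mM DTT, 0.1% BSA. Compound, RORγt and labelled cholesterol were incubated 20 min at RT, then antibody was added for another 20 min.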
For orientation: TR-FRET usually uses a lanthanide donor and a delayed reading to cut background.

Test [2] concerns the target T1, RORγt. Description: Jurkat reporter test (human IL-17 ROR response element luciferase, RORγt vector). The following applies: read-out: Luminescence level inhibitory rate at test compound 3 μM (%). In kind it is cell-based. In short, it runs like this: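 Jurkat cells were electroporated (1350 V, 10 ms, 3 pulses) with reporter constructs, then cultured overnight with compound in RPMI containing 10% lipid-reduced FCS, 10 mM HEPES pH 7.5 and 5 μM lovastatin. Luciferase was quantified by Bright-Glo luminescence after 10 min at room temperature.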

Test [3] addresses T1, RORγt. The test is described as follows: RORγt binding test using fluorescent-labeled synthetic ligand (TR-FRET). The following applies: read-out: Binding inhibitory rate of fluorescent-labeled synthetic ligand to RORγt at test compound 1 μM (%). Here is the method:
RORγt Binding Test Using Fluorescent-labeled Synthetic Ligand
The binding activity of the test compound to RORγt was measured by a time resolved fluorescence resonance energy transfer method (TR-FRET) utilizing histidine-tagged RORγt, fluorescent-labeled synthetic ligand, and terbium-labeled anti-histidine tag antibody (Invitrogen). First, a test compound diluted with an assay buffer (20 mM Tris-HCl (pH 7.5), 100 mM NaCl, 1 mM DTT, 0.1% BSA) was added to a 384 well plate by 3 μL. Then, RORγt diluted with an assay buffer to 240 nM was added by 3 μL, after which fluorescent-labeled synthetic ligand diluted with the assay buffer to 12 μM was added by 3 μL, and the mixture was stood at room temperature for 20 min. Thereafter, a terbium-labeled anti-histidine tag antibody diluted with the assay buffer to 8 nM was added by 3 μL. The mixture was stood at room temperature for 20 min, and fluorescence intensity (excitation wavelength 320 nm, fluorescence wavelength 520 nm, delay time 100 microseconds) was measured by Envision (PerkinElmer).

Test [4] addresses T1, RORγt. The test is described as follows: Cofactor recruitment test (Alpha Screen, biotinylated SRC-1 peptide). In kind it is biochemical. The following applies: read-out: Signal value inhibitory rate at test compound 1 μM (%). The procedure:
Cofactor Recruitment Test
Cofactor recruitment test was performed by Alpha Screen (Histidine Detection Kit, PerkinElmer) method. First, a test compound was diluted with an assay buffer (50 mM Tris-HCl (pH 7.5), 50 mM KCl, 1 mM DTT, 0.1% BSA) and added to a 384 well plate by 5 μL. […] The mixture was stood in a dark place for 1 hr, and the signal value was measured by Envision (PerkinElmer).

Setting [5] is: test compound 3 μM, Jurkat cells.

Read-outs that look alike come from different tables or passages of the source.

As to `CCOc1ccc2c(c1)CCN(C(=O)CCCC(=O)O)[C@H]2C(=O)Nc1cc(F)c(C(C)(C)COCC(F)F)c(F)c1` [Example 153, 5-((1R)-1-((4-(1-(2,2-difluoroethoxy)-2-methylpropan-2-yl)-3,5-difluorophenyl)carbamoyl)-6-ethoxy-3,4-dihydroisoquinolin-2 (1H)-yl)-5-oxopentanoic acid], the inhibition at 1 µM on RORγt [1] was 100%; at RORγt [3], 102%; on RORγt [4], 84%. The inhibition at 3 µM on RORγt [2] (setting [5]) is 97%.

For the compound `COc1ccc2c(n1)CCN(C(=O)Cc1cc(O)no1)[C@H]2C(=O)Nc1ccc(C(C)(C)C)c(F)c1` [Example 78, (5R)-N-(4-tert-butyl-3-fluorophenyl)-6-((3-hydroxy-1,2-oxazol-5-yl)acetyl)-2-methoxy-5,6,7,8-tetrahydro-1,6-naphthyridine-5-carboxamide], the inhibition at 1 µM at RORγt [1] worked out at 101%; at RORγt [3], 102%; at RORγt [4] it was 89%. The inhibition at 3 µM at RORγt [2] (setting [5]) was 101%.

On to `CCOc1ccc2c(c1)CCN(C(=O)Cc1cc(O)no1)[C@H]2C(=O)Nc1cc(F)c(C(C)(C)COCC(F)F)c(F)c1` [Example 155, (1R)-N-(4-(1-(2,2-difluoroethoxy)-2-methylpropan-2-yl)-3,5-difluorophenyl)-6-ethoxy-2-((3-hydroxy-1,2-oxazol-5-yl)acetyl)-1,2,3,4-tetrahydroisoquinoline-1-carboxamide], for which the inhibition at 1 µM at RORγt [1] amounted to 101%; at RORγt [3] it was 101%; at RORγt [4] it was 84%. The inhibition at 3 µM at RORγt [2] (setting [5]) amounted to 99%.

In the case of `COc1ccc2c(c1)CCN(C(=O)Cc1cc(O)no1)[C@H]2C(=O)Nc1cc(F)c(C(C)(C)COCC2CC2)c(F)c1` [Example 157, (1R)-N-(4-(1-(cyclopropylmethoxy)-2-methylpropan-2-yl)-3,5-difluorophenyl)-2-((3-hydroxy-1,2-oxazol-5-yl)acetyl)-6-methoxy-1,2,3,4-tetrahydroisoquinoline-1-carboxamide], the results for the inhibition at 1 µM on RORγt [1], on RORγt [3] and on RORγt [4] were 99%, 102% and 74%, respectively. For the same compound, the inhibition at 3 µM at RORγt [2] (setting [5]) was found to be 94%.

Consider `CCOc1ccc2c(c1)CCN(C(=O)[C@H](O)CCC(=O)O)[C@H]2C(=O)Nc1cc(F)c([Si](C)(C)C)c(F)c1` [Example 209, (4R)-5-((1R)-1-((3,5-difluoro-4-(trimethylsilyl)phenyl)carbamoyl)-6-ethoxy-3,4-dihydroisoquinolin-2(1H)-yl)-4-hydroxy-5-oxopentanoic acid], for which the inhibition at 3 µM on RORγt [2] (Jurkat) is 99%. Moreover, the inhibition at 1 µM at RORγt [3] is 102%; at RORγt [4], 87%.

`CCOc1ccc2c(c1)CCN(C(=O)CCCC(=O)O)[C@H]2C(=O)Nc1ccc([Si](C)(C)C)c(F)c1` [Example 183, 5-((1R)-6-ethoxy-1-((3-fluoro-4-(trimethylsilyl)phenyl)carbamoyl)-3,4-dihydroisoquinolin-2 (1H)-yl)-5-oxopentanoic acid]: on RORγt [2] (Jurkat), the inhibition at 3 µM was 102%. Further, the inhibition at 1 µM at RORγt [3] was 101%; on RORγt [4], 91%.

On to `C[Si](C)(C)c1c(F)cc(NC(=O)[C@H]2c3ccc(OC(F)F)cc3CCN2C(=O)CCC(=O)O)cc1F` [Example 195, 4-((1R)-6-(difluoromethoxy)-1-((3,5-difluoro-4-(trimethylsilyl)phenyl)carbamoyl)-3,4-dihydroisoquinolin-2 (1H)-yl)-4-oxobutanoic acid], for which the inhibition at 3 µM on RORγt [2] (Jurkat) was 101%. Besides, the inhibition at 1 µM at RORγt [3] is 101%; on RORγt [4] it was 89%.

Regarding `COc1ccc2c(c1)CCN(C(=O)NCCCC(=O)O)[C@H]2C(=O)Nc1cc(F)c([Si](C)(C)C)c(F)c1` [Example 242, 4-((((1R)-1-((3,5-difluoro-4-(trimethylsilyl)phenyl)carbamoyl)-6-methoxy-3,4-dihydroisoquinolin-2(1H)-yl)carbonyl)amino)butanoic acid], the inhibition at 3 µM on RORγt [2] (Jurkat) was found to be 101%. Moreover, the inhibition at 1 µM on RORγt [3] was determined as 101%; at RORγt [4], 94%.

On to `CCOc1ccc2c(c1)CCN(C(=O)CCC(=O)O)[C@H]2C(=O)Nc1cc(F)c([Si](C)(C)C)c(F)c1` [Example 180, 4-((1R)-1-((3,5-difluoro-4-(trimethylsilyl)phenyl)carbamoyl)-6-ethoxy-3,4-dihydroisoquinolin-2(1H)-yl)-4-oxobutanoic acid], for which the inhibition at 3 µM at RORγt [2] (Jurkat) was found to be 100%. In addition, the values for the inhibition at 1 µM at RORγt [3] and at RORγt [4] were 101% and 93%, respectively.

On to `CCOc1ccc2c(c1)CCN(C(=O)CC(C)(O)CC(=O)O)[C@H]2C(=O)Nc1cc(F)c([Si](C)(C)C)c(F)c1` (stereo partly drawn) [Example 240, 5-((1R)-1-((3,5-difluoro-4-(trimethylsilyl)phenyl)carbamoyl)-6-ethoxy-3,4-dihydroisoquinolin-2(1H)-yl)-3-hydroxy-3-methyl-5-oxopentanoic acid], for which, on RORγt [2] (Jurkat), the inhibition at 3 µM turned out to be 101%. The inhibition at 1 µM at RORγt [3] turned out to be 101%; at RORγt [4], 91%.

Regarding `CCOc1ccc2c(c1)CCN(C(=O)CCCCC(=O)O)[C@H]2C(=O)Nc1cc(F)c2c(c1)CCC2(C)C` [Example 210, 6-((1R)-6-ethoxy-1-((7-fluoro-1,1-dimethyl-2,3-dihydro-1H-inden-5-yl)carbamoyl)-3,4-dihydroisoquinolin-2(1H)-yl)-6-oxohexanoic acid], the inhibition at 3 µM at RORγt [2] (setting [5]) worked out at 98%. Also, the inhibition at 1 µM on RORγt [3] stood at 101%; on RORγt [4] it was 76%.

Turning to `CC1(C)CCc2cc(NC(=O)[C@H]3c4ccc5c(c4CCN3C(=O)CCCC(=O)O)OCO5)cc(F)c21` [Example 256, 5-((6R)-6-((7-fluoro-1,1-dimethyl-2,3-dihydro-1H-inden-5-yl)carbamoyl)-8,9-dihydro[1, 3]dioxolo[4,5-f]isoquinolin-7 (6H)-yl)-5-oxopentanoic acid], on RORγt [2] (setting [5]), the inhibition at 3 µM was found to be 83%. The inhibition at 1 µM is 100% at RORγt [3] and 102% on RORγt [4].

Regarding `CCOc1ccc2c(c1)CCN(C(=O)CCCC(=O)O)[C@H]2C(=O)Nc1cc(F)c2c(c1)CCC2(C)C` [Example 182, 5-((1R)-6-ethoxy-1-((7-fluoro-1,1-dimethyl-2,3-dihydro-1H-inden-5-yl)carbamoyl)-3,4-dihydroisoquinolin-2(1H)-yl)-5-oxopentanoic acid], the inhibition at 3 µM at RORγt [2] (setting [5]) is 99%. The inhibition at 1 µM on RORγt [3] is 101%; on RORγt [4], 67%.

With `COc1ccc2c(c1)CCN(C(=O)[C@@H](O)CCC(=O)O)[C@H]2C(=O)Nc1cc(F)c([Si](C)(C)C)c(F)c1` [Example 248, (4S)-5-((1R)-1-((3,5-difluoro-4-(trimethylsilyl)phenyl)carbamoyl)-6-methoxy-3,4-dihydroisoquinolin-2(1H)-yl)-4-hydroxy-5-oxopentanoic acid], the inhibition at 3 µM on RORγt [2] (Jurkat) worked out at 100%. Besides, the inhibition at 1 µM at RORγt [3] is 101%; on RORγt [4], 87%.

For the compound `C[Si](C)(C)c1c(F)cc(NC(=O)[C@H]2c3ccc(OC(F)F)cc3CCN2C(=O)CCCC(=O)O)cc1F` [Example 196, 5-((1R)-6-(difluoromethoxy)-1-((3,5-difluoro-4-(trimethylsilyl)phenyl)carbamoyl)-3,4-dihydroisoquinolin-2 (1H)-yl)-5-oxopentanoic acid], at RORγt [2] (Jurkat), the inhibition at 3 µM was 100%. Also, the figures for the inhibition at 1 µM on RORγt [3] and at RORγt [4] were 102% and 91%, respectively.
